Reference: patent US20030134342A1, “Binding-specific peptides, binding-specific carrier molecules, and uses thereof” (priority 2001, published 2003)
Where no end group is shown, it is not given here.

Tests used:
AML bone marrow cells = test: Methylcellulose culture of AML bone marrow cells with peptides: proliferation (colonies) and differentiation (morphology); assay type: cell-based, human; conditions: for Activation of Proliferation GM-CSF / Cell Differentiation GM-CSF: with GM-CSF; for Activation of Proliferation (Patient No.) +GM-CSE: peptide with GM-CSF; for induction of differentiation of the patient cells (FIG. 8): AML bone marrow cells, 14 days methylcellulose; for Activation of Differentiation: patient numbers
Protocol: The effect of various peptides were analyzed for their biological activity on cells from a patient with acute myelogenous leukemia. The AML cells were cultured into a semi-solid medium of methylcellulose in order to determine the cloning efficiency and the differentiation of the cells. The various peptides were introduced into the semi-solid cell culture at a concentration of 10^−4 M (0.1 mM) peptide. After 14 days continuous incubation of the cell cultures, the morphology of the cells were analyzed. The data are shown in FIG. 7 for the cultures and show the percentage of immature cells in the culture (solid black), the percentage of small myeloblasts (solid white), the percentage of young cells (dark gray), and the relative percentage of monocytes to […] (light gray). The data regarding the biological response of AML bone marrow cells in the presence of the various peptides is shown in the table below.

[1] = test system: human bone marrow AML cells; test: Effect of phage-peptides on differentiation, cell number and viability of freshly obtained AML patient bone marrow cells cultured seven days; assay type: cell-based; conditions: for Number of Cells / Percent Differentiation / Viability: phage-peptides; for Percent differentiated in Specimen 2 / Percent differentiated in Specimen 1: peptides in bacteriophage, AML cells cultured seven days in vitro
Text: The effect of various phage-peptides were studied on the differentiation of cells from two AML patients.

CML cells = test: ELISA binding of phage displaying peptides to fixed cells: CML cells; design: species or system human; conditions: in words
Protocol: (§1) Preliminary experiments were performed to identify specific peptides by using cells from patients diagnosed with CLL, CML, and AML. The screening was performed by incubating the cells with the phage-peptides from the library. This incubation allows interaction between the peptide and the cell. The binding step was followed by several washes to eliminate free phage. Phage bound on the cell surface was eluted.
(§2) After the last round of binding with one cell type, the eluted phage was plated on an agar plate with the appropriate selection antibiotics. Each individual colony, corresponding to one individual peptide sequence, was amplified in a 96-well plate. After purification, these peptides were tested for their ability to bind to the cells in a microtiter plate by ELISA.
(§3) Each peptide was dispensed in a 96-well plate, containing cells previously fixed. Each colony was tested in a triplicate assay with the appropriate controls. After incubation of cells with an individual clone, the wells were washed to eliminate free phage. The bound phages were detected by using a monoclonal anti-M13 antibody/horseradish peroxidase (HRP) conjugate. After addition of the HRP substrate, the intensity of the coloration was measured by spectrophotometry. The light absorbance values (optical density values, O.D. values) are proportional to the number of phage bound to the cells.
(§4) The binding to various cell types were examined to evaluate the cellular specificity of the phage clones. For example, the clones from phage eluted from CLL patient cells were assayed for their ability to bind cells from an AML patient. Cells from normal donors (non-leukemic) were also evaluated to ascertain leukemia cell specificity.
(§5) Peripheral blood and bone marrow samples were collected from patients after informed consent. The samples were collected in tubes containing sodium citrate. Mononuclear cells were isolated by Ficoll-Hypaque density gradient separation and collection of the cells at a density of 1.077 g/mL.
(§6) The wells of a 96-well plate were pre-treated with 100 μL of poly-L-lysine (0.01 mg/mL in phosphate-buffered saline, 120 mM NaCl, 2.7 mM KCl, 10 mM phosphate buffer, “PBS”) for 2-16 hours at room temperature. After draining the poly-L-lysine from the wells, the excess poly-L-lysine was removed from the wells by flicking. The cells were washed with PBS, then suspended in PBS and diluted to a final concentration of […]. The cell suspension (200 μL; 250,000 cells) were added to each well needed for the assay.
(§7) The plates were centrifuged at 500 g for about 5 minutes in a microplate carrying centrifuge when available. The cells were fixed to the wells through the addition of glutaraldehyde (100 μL of 0.5%) and incubating at room temperature for about an hour. The glutaraldehyde was removed and the cell-coated wells washed once with PBS. Alternatively, the cells were permitted to settle to the well bottoms for about 4 hours at 37° C., and the glutaraldehyde fixative was added after removing the PBS.
(§8) A glycine solution (200 μl of 0.1 M glycine in PBS) containing bovine serum albumin (BSA; 1%) was added to the wells and permitted to incubate for 30 minutes to block excess glutaraldehyde. The glycine was removed, and the cell-coated wells washed once with PBS. A sodium pyrophosphate solution (200 μL of 0.3 mg/mL NaPPi) was added to the wells and incubated for an hour at room temperature to neutralize lysine charges. The pyrophosphate solution was removed and the wells washed once with PBS. Multiwell microtiter plates with cell-coated wells were stored at 4° C. with fresh PBS solution in the coated wells.
(§9) The cells to be studied for binding were suspended in PBS and adsorbed onto to a poly-L-lysine pretreated 96-well plate and kept at 4° C. The PBS was removed from the wells and an H2O2 solution in PBS (6% H2O2 in 200 μL/well) was added. […]

AML cells = test: ELISA binding of phage displaying peptides to fixed cells: AML cells; design: species or system human; conditions: in words
Protocol: as §1, §2, §3, §4, §5, §6, §7, §8, §9

CLL cells = test: ELISA binding of phage displaying peptides to fixed cells: CLL cells; design: species or system human; conditions: in words
Protocol: as §1, §2, §3, §4, §5, §6, §7, §8, §9

[2] = test system: human myeloid leukemia cell line HL60; test: Viability of HL60 cells, trypan blue; assay type: cell-based
Protocol: Studies were conducted of the effects of the free G5 12-8B (artificially synthesized), phage displaying G5 12-8B, the free A2 11-24 peptide, phage displaying the A2 11-24 peptide, a combination of the free G5 and A2 peptides, a combination of pure peptides plus phage displaying the peptides, and several concentrations of peptide.

[3] = test system: all myeloid cells, both malignant and nonmalignant; test: ELISA binding of phage displaying peptides to fixed cells: all myeloid cells; design: species or system human; conditions: in words
Protocol: as §1, §2, §3, §4, §5, §6, §7, §8, §9

[4] = test system: normal peripheral blood cells (lymphocytes and granulocytes); test: ELISA binding of phage displaying peptides to fixed cells: normal peripheral blood cells; design: species or system human; conditions: in words
Protocol: as §1, §2, §3, §4, §5, §6, §7, §8, §9

[5] = fraction, not explained, peptide alone
[6] = numbers of the AML patients whose cells responded

CDEKRGPNEC [B4 C10]
Activation of Proliferation (AML bone marrow cells; [5]): 1/6
Cell Differentiation (AML bone marrow cells; [5]): 2/4
Activation of Proliferation GM-CSF (AML bone marrow cells; fraction, not explained): 1/2
Cell Differentiation GM-CSF (AML bone marrow cells; fraction, not explained): 0/2
Activation of Proliferation (Patient No.) (AML bone marrow cells; numbers of the AML patients whose cells responded, peptide alone, 10^−4 M, 14 days): 9
Activation of Proliferation (Patient No.) +GM-CSE (AML bone marrow cells; [6]): 11

CIEETAAKGC [Peptide A2A, A2 with R replaced by A]
Activation of Proliferation (AML bone marrow cells; [5]): 4/11
Cell Differentiation (AML bone marrow cells; [5]): 3/8
Inhibition of Proliferation (AML bone marrow cells; [5]): 1/11
Activation of Proliferation GM-CSF (AML bone marrow cells; fraction, not explained): 2/4
Cell Differentiation GM-CSF (AML bone marrow cells; fraction, not explained): 1/4
activity on cell differentiation (FIG. 9, another example) (AML bone marrow cells; in words): have a biological activity
activity on cell differentiation compared with the peptide with cysteine residues (FIG. 8) (AML bone marrow cells; in words): higher activity
induction of differentiation of the patient cells (FIG. 8) (AML bone marrow cells; in words): able to induce the differentiation
Inhibition of Proliferation (AML bone marrow cells; numbers of the AML patients whose cells responded, peptide alone): 10
Activation of Differentiation (AML bone marrow cells): 3

CNELHMKQHC [G7 12-8B]
Activation of Proliferation (AML bone marrow cells; [5]): 2/6
Cell Differentiation (AML bone marrow cells; [5]): 4/5
Activation of Proliferation GM-CSF (AML bone marrow cells; fraction, not explained): 0/2
Cell Differentiation GM-CSF (AML bone marrow cells; fraction, not explained): 0/2

CNHVCSRLGC [B6 12-8B]
Activation of Proliferation (AML bone marrow cells; [5]): 5/14
Cell Differentiation (AML bone marrow cells; [5]): 3/13
Inhibition of Proliferation (AML bone marrow cells; [5]): 3/14
Activation of Proliferation GM-CSF (AML bone marrow cells; fraction, not explained): 3/5
Cell Differentiation GM-CSF (AML bone marrow cells; fraction, not explained): 2/5

CNNATFEDGC [G2 12-8A]
Activation of Proliferation (AML bone marrow cells; [5]): 6/14
Cell Differentiation (AML bone marrow cells; [5]): 2/12
Inhibition of Proliferation (AML bone marrow cells; [5]): 1/14
Activation of Proliferation GM-CSF (AML bone marrow cells; fraction, not explained): 2/5
Cell Differentiation GM-CSF (AML bone marrow cells; fraction, not explained): 2/5

CNNATVEDEC [C8 12-8B]
Activation of Proliferation (AML bone marrow cells; [5]): 2/8
Cell Differentiation (AML bone marrow cells; [5]): 1/8
Activation of Proliferation GM-CSF (AML bone marrow cells; fraction, not explained): 1/2
Cell Differentiation GM-CSF (AML bone marrow cells; fraction, not explained): 1/2

DEKRGPNE [B4(1)]
Number of Cells ([1]; Patient 1): 1.3 106
Number of Cells ([1]; Patient 2): 0.25 106
Percent Differentiation ([1]; Patient 2): 53%
Percent differentiated in Specimen 2 [1]: 53%
binding of phage displaying the peptide to CML cells (CML cells): bind
binding of phage displaying the peptide to AML cells (AML cells): bind

EFQQWSGK [B7(1)]
binding of phage displaying the peptide to CML cells (CML cells): bind
binding of phage displaying the peptide to AML cells (AML cells): bind
binding of phage displaying the peptide to CLL cells (CLL cells): not

EFQQWSGK [G2 11-24]
Number of Cells ([1]; Patient 1): 1.11 106
Percent Differentiation ([1]; Patient 1): 16.2%
Number of Cells ([1]; Patient 2): 0.25 106
Percent Differentiation ([1]; Patient 2): 39%
Percent differentiated in Specimen 1 [1]: 16%
Percent differentiated in Specimen 2 [1]: 39%
binding of phage displaying the peptide to CML cells (CML cells): bind and binds
binding of phage displaying the peptide to AML cells (AML cells): bind and binds

EFQQWSGK [G5 12-8B no Cys]
Activation of Differentiation (AML bone marrow cells): 3

EFQQWSGK [H3 11-24]
binding of phage displaying the peptide to CLL cells (CLL cells): bind

IEETARKG [A2 11-24 no Cys]
Activation of Proliferation (AML bone marrow cells; [5]): 4/14
Cell Differentiation (AML bone marrow cells; [5]): 4/13
Activation of Proliferation GM-CSF (AML bone marrow cells; fraction, not explained): 1/2
Cell Differentiation GM-CSF (AML bone marrow cells; fraction, not explained): 2/2
activity on cell differentiation compared with the peptide with cysteine residues (FIG. 8) (AML bone marrow cells; in words): higher activity
induction of differentiation of the patient cells (FIG. 8) (AML bone marrow cells; in words): able to induce the differentiation
Activation of Proliferation (Patient No.) +GM-CSE (AML bone marrow cells; [6]): 11

IEETARKG [peptide A2]
Day 5 Viability ([2]; 5 day): 97%
Day 7 Viability ([2]; 7 day): 95%
Day 9 Viability ([2]; 9 day): 74%

NELHMKQH [G6 12-8B]
binding of phage displaying the peptide to all myeloid cells, both malignant and nonmalignant [3]: bind

NETTVREY [A7 11-24]
binding of phage displaying the peptide to blood cells (lymphocytes or granulocytes) [4]: bind
binding of phage displaying the peptide to CLL cells (CLL cells): bind

NETTVREY [F10 11-24]
binding of phage displaying the peptide to CML cells (CML cells): bind
binding of phage displaying the peptide to AML cells (AML cells): bind
binding of phage displaying the peptide to CLL cells (CLL cells): not
binding of phage displaying the peptide to all myeloid cells, both malignant and nonmalignant [3]: bind

NHVCSRLG [B6 11-24]
binding of phage displaying the peptide to all myeloid cells, both malignant and nonmalignant [3]: bind

NNATFEDG [G2 12-8A]
Number of Cells ([1]; Patient 1): 0.93 106
Percent Differentiation ([1]; Patient 1): 27.5%
Number of Cells ([1]; Patient 2): 0.31 106
Percent Differentiation ([1]; Patient 2): 52%
Percent differentiated in Specimen 1 [1]: 28%
Percent differentiated in Specimen 2 [1]: 51%

NNATVEDE [F9 11-24]
binding of phage displaying the peptide to all myeloid cells, both malignant and nonmalignant [3]: bind

VSEDIYDA [C10 12-8B]
binding of phage displaying the peptide to CML cells (CML cells): bind
binding of phage displaying the peptide to AML cells (AML cells): bind
binding of phage displaying the peptide to CLL cells (CLL cells): bind
binding of phage displaying the peptide to all myeloid cells, both malignant and nonmalignant [3]: bind

VSEDIYDA [F1 12-8B]
Number of Cells ([1]; Patient 1): 0.82 106
Percent Differentiation ([1]; Patient 1): 34%
Number of Cells ([1]; Patient 2): 0.22 106
Percent Differentiation ([1]; Patient 2): 52%
Percent differentiated in Specimen 1 [1]: 34%
Percent differentiated in Specimen 2 [1]: 52%
binding of phage displaying the peptide to CML cells (CML cells): binds and bind
binding of phage displaying the peptide to AML cells (AML cells): binds and bind
binding of phage displaying the peptide to CLL cells (CLL cells): not
binding of phage displaying the peptide to all myeloid cells, both malignant and nonmalignant [3]: bind

granulocyte-macrophage colony-stimulating factor [GM-CSF]
Number of Cells ([1]; Patient 1): 1.57 106
Percent Differentiation ([1]; Patient 1): 21%
Viability ([1]; Patient 1): 80%
Number of Cells ([1]; Patient 2): 0.87 106
Percent Differentiation ([1]; Patient 2): 16.5%
Viability ([1]; Patient 2): 89%
Percent differentiated in Specimen 1 [1]: 21%
Percent differentiated in Specimen 2 [1]: 17%
